Where two headings read alike, the source gives them in different places.
Legend:
[1] = In vitro intrinsic clearance in human microsomes; assay type: in vitro ADME; details: pH 7.4; human microsomes 0.5 mg/ml, 1 μM compound, 37° C., up to 1 hour; read-out: human MS Clint
Protocol: (§1) Metabolic stability of the compounds of the invention has been assessed by measurement of the in vitro intrinsic clearance in murine and human microsomes.
(§2) 10 mM stock solutions of markers and test compounds were prepared in DMSO. These were diluted 100-fold in 91:9 MeCN:DMSO to obtain a 100 μM assay stock. 10 mM NADPH was made up in 0.1M phosphate buffer (pH7.4). Microsomes were thawed in a waterbath at 37° C., and diluted to give a final assay concentration of 0.5 mg/ml.
(§3) 100 μM assay stocks were added to give a final concentration of 1 μM to incubation tubes containing buffer and NADPH (final assay concentration is 1 mM). Incubation tubes and microsomes were pre-warmed at 37° C. for 3 minutes. The microsomes were then added to the incubation tubes which were kept at 37° C. and shaken using the orbital shaker for the duration of the assay. Samples were taken at 6 pre-determined time points up to 1 hour and transferred to the prepared quench tubes containing an appropriate solvent with internal standard.
(§4) Quenched samples are mixed thoroughly and protein precipitated at −20° C. for a minimum of 12 hours. Samples were then centrifuged at 4° C. Supernatants were transferred to a fresh 96 well plate, compatible with the auto-sampler. The plate was sealed with a pre-slit silicone mat and analyzed by LC-MS/MS.

[2] = target: p53-Mdm2 interaction (Homo sapiens (Human), UniProt Q00987); test: Fluorescence polarization (FP) binding assay, inhibition of p53-Mdm2 interaction; details: 75 nM Mdm2 (amino acids 1-111), 10 nM FAM-labelled p53 peptide; IC50 transformed to Ki using Kenakin equation
Sequence of p53-Mdm2 interaction (Q00987 1-111): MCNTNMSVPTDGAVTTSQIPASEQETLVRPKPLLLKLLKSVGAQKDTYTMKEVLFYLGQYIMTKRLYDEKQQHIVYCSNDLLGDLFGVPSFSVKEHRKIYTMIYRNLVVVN
Protocol: The inhibition of p53-Mdm2 interaction was measured using a fluorescence polarization (FP) binding assay. FP measures the rotational movement of molecules in a homogenous suspension. For this assay, N-terminal domain of Mdm2 protein (amino acids 1-111) is combined with a fluorescein-labeled (FAM) peptide derived from p53 trans-activation domain (Sequence: 5-FAM-TSFAEYWNLLSP). Upon excitation of the fluorescent ligand with linearly polarized light the peptide emits perpendicularly polarized light. If the peptide is bound by Mdm2, rotation will slow down and the perpendicular component will proportionally decrease. In opposition disruption of the peptide-Mdm2 complex due to binding of an inhibitor to the p53 binding site of Mdm2 results in releasing of peptide and decreasing of emitted light polarization.
Fluorescence polarization experiments were read on Biotek Cytation 5 reader with the 470 nm excitation and 520 nm emission filters for fluorescein. The fluorescence polarization was measured in black 96-well plates (Corning, CLS3991) in room temperature. Purity of Mdm2 was controlled at >95%. Reaction buffer was optimized by adding 5 mM DTT and 0.1% zwitterionic detergent CHAPS to reduce effect of nonspecific interactions.
The test was performed by combining successive dilution of compounds diluted in dimethyl sulfoxide (DMSO, 5% final concentration) with 75 nM Mdm2 in reaction buffer (PBS, 0.1% CHAPS, 5 mM DTT (dithiothreitol)). After 15 minutes of incubation in room temperature 10 nM FAM-labelled peptide was added. Final reading was performed after 90 minutes of incubation. Dose-dependent binding curves and IC50 values were calculated using GraphPad Prism5 and next transformed to Ki values using Kenakin equation (Table 2).

[3] = In vitro intrinsic clearance in murine microsomes; assay type: in vitro ADME; details: mouse, pH 7.4; murine microsomes 0.5 mg/ml, 1 μM compound, 37° C., up to 1 hour; read-out: murine MS Clint
Protocol: as §1, §2, §3, §4

[4] = system: SJSA-1 osteosarcoma cell line; test: Cell viability MTT assay; assay type: cell-based; details: Homo sapiens, 72 h incubation, average of 2-5 experiments
Protocol: The effect of the invented p53-Mdm2 inhibitors on cell viability has been assessed using MTT assay. It is a colorimetric assay that measures conversion of tetrazolium ring of the soluble yellow dye (MTT) into insoluble purple formazan. This process is catalyzed solely in mitochondrial dehydrogenases of living cells.
Cells were seeded on 96-well plates and then treated with successive dilutions of tested compounds. After 72 h incubation, MTT was added to the final concentration 0.5 mg/ml. The cells were further incubated for the next 4 h. Then the solution was drained and the remaining formazan crystals were dissolved in 100 μl DMSO. […] All the MTT experiments were independently repeated 2-5 times. Dose-dependent binding curves and IC50 values were calculated using GraphPad Prism 5. The presented IC50 values represent the average value from all the performed experiments (Table 3).

[5] = system: SJSA-1 xenograft; test: In vivo efficacy in the SJSA-1 xenograft model in mice; details: for inhibition in vivo at 12.5 mg/kg: Mus musculus, po, 12.5 mg/kg p.o., q1d, SJSA-1 xenograft in Crl:CD-1-Foxn1nu mice, mean
Protocol: The experiment was conducted on female mice from the Crl:CD-1-Foxn1nu strain. Mice were inoculated subcutaneously in the right flank with cancer cell line SJSA-1 in the amount of 3×10^6 cells suspended in 100 μl HBSS: Matrigel matrix in a 3:1 ratio per mouse. On the 17th day after inoculation mice were divided into groups, so that in each group the mean tumor volume was similar and averaged around 200 mm^3. Experiment groups were selected, each consisting of 8 mice: Control NaCl 0.9% and compounds. Compounds 1-11 were dissolved in 56.60% PEG 400, 9.43% Cremophor RH40, 9.43% ETOH, 18.87% Labrafil M1944CS, 5.67% DMSO. For Compound 107 from WO2015/189799, group of 7 mice was used, and it was dissolved in 15% PEG400, 10% Cremophor EL, 75% H2O.
[…] During the course of experiment mice were weighed before each administration, —twice/thrice a week. Animal welfare was monitored daily. No significant difference in body weight or welfare was observed between experiment groups during and at the end of study.
Change in tumor volume was monitored twice/thrice a week starting from the first day of administration. Tumor volume was calculated based on its length and width measured with an electronic calipers: V[mm^3]=d^2×D/2
The tumor volume in the groups was measured up to 101 days after inoculation (72 days after last administration). Results of the experiment were expressed as mean values of tumor growth inhibition (TGI) ±SEM (Table 4). Tumor growth inhibition was calculated using the following formula TGI [%]=[100−[…]]
where C— mean tumor size in control group, T—mean tumor size in treated group. All calculations and graphs were performed using GraphPad Prism 5 software.

[6] = after 7 doses, read-out: TGI P.O. 12.5 mg/kg (7 doses) [%]
[7] = after 12 doses, read-out: TGI P.O. 12.5 mg/kg (12 doses) [%]

microsomal CLint at 1 μM [1] [µL/min/mg] | Ki [2] [nM] | microsomal CLint at 1 μM [3] [µL/min/mg] | IC50 [4] [µM] | SMILES | effect of treatment on tumors (in words) ([5]; 14 doses of 12.5 mg/kg p.o., SJSA-1 xenograft) | inhibition in vivo at 12.5 mg/kg [5, 6] [%] | inhibition in vivo at 12.5 mg/kg [5, 7] [%] | regrowth of lesions during follow-up ([5]; after 14 doses of 12.5 mg/kg p.o., follow-up to day 101)
< 3 | 1.9 | 12.8 | 0.15 | COc1cc(OC)c(-n2cc3c(c2C(C)C)[C@@]2(C(=O)Nc4cc(Cl)ccc42)N(c2ccc(F)c(F)c2)C3=O)cn1 [Compound 8, (3S)-6-chloro-2′-(3,4-difluorophenyl)-5′-(4,6-dimethoxypyridin-3-yl)-6′-(propan-2-yl)-1,2,3′,5′-tetrahydro-2′H-spiro[indole-3,1′-pyrrolo[3,4-c]pyrrole]-2,3′-dione] | complete eradication of tumors | 96.4 | 99.7 | none of the lesions exhibited regrowth
< 3.2 | 2 | < 3 | 0.4 | COc1ncc(-n2cc3c(c2C(C)C)[C@@]2(C(=O)Nc4cc(Cl)ccc42)N(c2cc(Cl)c(F)cc2F)C3=O)c(OC)n1 [Compound 10, (3S)-6-chloro-2′-(5-chloro-2,4-difluorophenyl)-5′-(2,4-dimethoxypyrimidin-5-yl)-6′-(propan-2-yl)-1,2,3′,5′-tetrahydro-2′H-spiro[indole-3,1′-pyrrolo[3,4-c]pyrrole]-2,3′-dione] | – | 93.5 | 98.8 | –
